Test results reported in PubChem BioAssay (NCI).
Values joined by “and” are separate entries in the source; they are usually repeats but may differ in a detail not shown here. Equal values may be shown once.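 Protocol summary: plate cells (96-well), add compound at 5 concentrations, incubate 48 h, interpolate endpoints linearly. Here, GI50 denotes the concentration required for 50% inhibition of growth. Definition used: TGI = concentration required for complete inhibition of growth.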

What was measured:
Test in all cases: DTP human tumour cell line panel, 48 h
NCI-H460 lung = system: NCI-H460 lung
SK-OV-3 ovarian = system: SK-OV-3 ovarian
PC-3 prostate = system: PC-3 prostate
786-0 renal = system: 786-0 renal
A549 NSCLC = system: A549 NSCLC
SK-MEL-5 melanoma = system: SK-MEL-5 melanoma
TK-10 renal = system: TK-10 renal
CCRF-CEM leukemia = system: CCRF-CEM leukemia
MOLT-4 leukemia = system: MOLT-4 leukemia
SF-295 CNS = system: SF-295 CNS

SMILES	GI50 (NCI-H460 lung)	TGI (NCI-H460 lung)	GI50 (SK-OV-3 ovarian) [µM]	TGI (SK-OV-3 ovarian) [µM]	GI50 (PC-3 prostate)	TGI (PC-3 prostate)	GI50 (786-0 renal)	TGI (786-0 renal) [µM]	GI50 (A549 NSCLC)	TGI (A549 NSCLC)	GI50 (SK-MEL-5 melanoma)	TGI (SK-MEL-5 melanoma)	GI50 (TK-10 renal)	TGI (TK-10 renal)	GI50 (CCRF-CEM leukemia)	TGI (CCRF-CEM leukemia) [µM]	GI50 (MOLT-4 leukemia)	TGI (MOLT-4 leukemia)	GI50 (SF-295 CNS)	TGI (SF-295 CNS)
Cc1cc(Nc2ncnc3ccc(NC4=NC(C)(C)CO4)cc23)ccc1Oc1ccn2ncnc2c1	17.9 µM and > 10 µM	39.6 µM and > 10 µM	0.0526	> 94.1	15.7 µM and > 10 µM	66.6 µM and > 10 µM	20.1 µM and > 10 µM	> 81.5	14.9 µM and > 10 µM	82.9 µM and > 10 µM	9.59 µM and 9.83 µM	22.3 µM and > 10 µM	3.84 µM and 2.76 µM	25.1 µM and > 10 µM	15.6 µM and > 10 µM	> 95.8	14.6 µM and > 10 µM	42.2 µM and > 10 µM	14.9 µM and > 10 µM	38.3 µM and > 10 µM
C=CC(=O)N[C@H]1CCOC[C@H]1Nc1ncc2cc(-c3c(Cl)c(OC)cc(OC)c3Cl)ccc2n1	13.8 µM	> 100 µM	26.9	> 100	14.8 µM	> 100 µM	17.5 µM	> 100	30.5 µM	> 100 µM	7.06 µM	20.9 µM	31.8 µM	> 100 µM	21.9 µM	> 100	6.43 µM	> 100 µM	16 µM	> 100 µM
CO[C@@H]1/C=C(C)/C=C/[C@@H](C)/C=C(\C)C(=O)OC(/C(C)=C/C=C(\C)CNC(=O)[C@H](CO)NC=O)[C@@H](C)/C=C/C=C/[C@H](OC)CC/C=C(C)/C=C/C1 (stereo not given in full)	< 0.005 µM	5.81 µM	0.332	9.48	< 0.005 µM	6.91 µM	< 0.005 µM	0.322	0.00881 µM	0.0242 µM	< 0.005 µM	< 0.005 µM	< 0.005 µM	0.236 µM	< 0.005 µM	16.5	< 0.005 µM	> 42.2 µM	< 0.005 µM	0.00951 µM
